Results as given in US20250179028A1, “ACRYLAMIDE COMPOUNDS” (NRG THERAPEUTICS LTD, priority 2022, published 2025).
≈ marks a conversion by molar mass, not a printed value. Read-outs that look alike come from different tables or passages of the source.

How the values were obtained:
[1] = Hepatocyte clearance assay, human; assay type: in vitro ADME; details: cryopreserved primary human hepatocytes, average value from two experiments, read-out: Human heps Clint
Experimental: (§1) In vitro clearance studies were performed in primary rat and human hepatocytes (BiolVT). Vials of cryopreserved rat or human hepatocytes were thawed in a 37° C. water bath for 2 min. Cells were transferred into thawing medium (Williams' Medium E containing 30% Percoll, 1×GlutaMAX-1, 15 mM HEPES, 5% fetal bovine serum (FBS), 4 μg/ml insulin, 1 μM dexamethasone), centrifuged at 100 g for 10 min then resuspended in culture medium (Leibovitz's L-15 Medium) at a concentration of 0.5×10^6 viable cells/mL (number of viable cells assessed using AO/PI staining). Hepatocytes (198 μL) were transferred into wells of a 96-well non-coated plate and placed in a 37° C. incubator for 10 min. Test compound solutions were prepared from 10 mM stocks in DMSO, diluted to 100 μM in 50% (v/v in water) acetonitrile. Test compound samples (2 μl) were added to each well of hepatocytes and incubated at 37° C. Samples (25 μl) were collected at t=0, 15, 30, […] and 120 min, mixed with 6 volumes (150 μl) of acetonitrile containing internal standard (100 nM alprazolam, 200 nM caffeine and 100 nM tolbutamide), vortexed for 5 min and centrifuged for 45 min at 3220 g. An aliquot of supernatant (100 μL) was diluted with 100 μL ultra-pure water, and the mixture was used for LC/MS/MS analysis. All incubations were performed in duplicate. Peak areas were determined from extracted ion chromatograms. The slope value, k, was determined by linear regression of the natural logarithm of the remaining percentage of the parent drug vs. incubation time curve. The in vitro half-life (in vitro t½) was determined from the slope value: in vitro t½=0.693/k. Conversion of the in vitro t½ (in min) into the in vitro intrinsic clearance (in vitro CLint, in μL/min/1×10^6 cells) was done using the following equation (mean of duplicate determinations):
(§2) [formula] • V=incubation volume (0.2 mL) • N=number of hepatocytes per well (0.1×10^6 cells).

CYP2D6 = CYP2D6 (Homo sapiens (Human), UniProt P10635); experiment: Cytochrome P450 CYP2D6 inhibition in human liver microsomes; assay type: in vitro ADME; details: probe dextromethorphan 2 µM (dextrorphan formation); 1 uM test compound, human liver microsomes; average value from two experiments; negative values = no effective inhibition
Sequence of CYP2D6 (P10635 whole entry): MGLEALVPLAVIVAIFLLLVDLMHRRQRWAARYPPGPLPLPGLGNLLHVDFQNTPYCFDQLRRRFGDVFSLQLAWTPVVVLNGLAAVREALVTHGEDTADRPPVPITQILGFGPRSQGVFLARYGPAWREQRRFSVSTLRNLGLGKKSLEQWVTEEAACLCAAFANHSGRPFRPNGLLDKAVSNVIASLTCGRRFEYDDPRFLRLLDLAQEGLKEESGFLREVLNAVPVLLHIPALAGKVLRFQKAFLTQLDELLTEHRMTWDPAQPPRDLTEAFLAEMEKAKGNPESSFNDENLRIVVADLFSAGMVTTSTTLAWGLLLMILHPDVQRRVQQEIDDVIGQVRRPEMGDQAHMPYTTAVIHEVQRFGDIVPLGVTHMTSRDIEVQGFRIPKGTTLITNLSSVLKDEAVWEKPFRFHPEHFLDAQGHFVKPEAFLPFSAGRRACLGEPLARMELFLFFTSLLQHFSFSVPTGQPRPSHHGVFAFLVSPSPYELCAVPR
In short: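 Human liver microsomes (0.2 mg/mL) with 2 μM dextromethorphan in 100 mM PBS, test compound at 1 μM or 0.1-30 μM, 15 min preincubation then NADPH-started reaction for 20 min at 37° C, in duplicate. Dextrorphan formation by UPLC-MS/MS; IC50 from % decrease versus uninhibited control.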

[2] = PBS and FaSSIF solubility; assay type: physicochemical; details: kinetic from dmso stock
Experimental: Test compounds were prepared as 10 mM stocks in DMSO and 15 μl samples transferred in duplicate into 1.5 mL glass flat bottom vials (BioTech Solutions). Fasted state simulated intestinal fluid (FaSSIF) or PBS (pH 7.4) was added to each vial to final volume of 500 μl. One PTFE encapsulated stir stick (V&P Scientific) was placed in each vial before sealing with PTFE/SIL plugs (BioTech Solutions). Vials were shaken at 1100 rpm for 2 hr at 25° C. Samples were then filtered through MultiScreen Solvinert filter plates (Millipore) via vacuum filtration. Aliquots of filtrate (5 μl) plus 5 μl DMSO were diluted in 490 μl 50% acetonitrile in water containing internal standard. The filtrate was analysed and quantified against a standard of known concentration using LC-MS/MS. Solubility values of the test compound and control compound were calculated as follows: […]

[3] = Hepatocyte clearance assay, rat; assay type: in vitro ADME; details: cryopreserved primary rat hepatocytes, average value from two experiments, read-out: Rat heps Clint
Experimental: as §1, §2

mPTP [4] = experiment: mPTP activity (Ca2+ retention) assay in isolated rat liver mitochondria; assay type: biochemical; details: for mPTP Rat liver pIC50: isolated rat liver mitochondria, average value from multiple experiments (n ≥ 2)
In short: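 Freshly isolated female Sprague Dawley rat liver mitochondria were energised with succinate and rotenone in pH 7.4 buffer with Fluo5N, then pre-incubated 10 min at RT with compound (30 μM to 1 nM final) before a 75 μM CaCl2 bolus. The IC50 used 10-min fluorescence, normalised to DMSO and 5 μM cyclosporin A.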

mPTP [5] = experiment: mPTP activity assay in isolated rat brain mitochondria; assay type: biochemical; details: isolated rat brain mitochondria
Experimental: mPTP activity was measured in brain mitochondria freshly isolated from female Sprague Dawley (250 to 300 gram) rats. Anaesthetised rats were perfused in-situ with ˜40 ml cold Dulbecco's Phosphate Buffered Saline (DPBS), then brains dissected and transferred into 30 ml Isolation Buffer (225 mM mannitol, 75 mM sucrose, 1 mM EGTA, adjusted to pH 7.4 with 1 M NaOH). The brain was minced using tweezers and a scalpel into ˜5 mm pieces then transferred into a 50 ml Potterton Dounce homogenization tube on ice containing 10 ml ice-cold isolation buffer (as above with addition of Complete Protease inhibitor; 1 tablet per 50 ml buffer).
Homogenisation was carried out using a […] pestle at 1800 rpm. The slurry was centrifuged at 2000 g for 10 min at 4° C., then the supernatant centrifuged at 12,000 g for 9 min. The pellet was resuspended with a dounce homogeniser in isolation buffer as above but with the addition of 0.02% digitonin, centrifuged at 12,000 g for 11 min and finally resuspended in 5 ml modified isolation buffer (as above but with EGTA reduced to 0.1 mM).
Test compounds were prepared in 384 well polypropylene assay plates as described above for the liver mitochondria assay. A stock mitochondria/Fluo5N assay solution was prepared in 5.6 ml assay buffer (120 mM mannitol, 40 mM MOPS, 5 mM KH2PO4, 60 mM KCl, 10 mM pyruvate, 2 mM malate, 2 mM MgCl2, 20 μM ADP, 1.26 μM oligomycin A, adjusted to pH 7.4) supplemented with Fluo5N pentapotassium salt (2 μM) and 1 ml mitochondria suspension, then transferred (15 μl) into the assay plate containing test compounds and incubated for 10 min at RT. Assay plates were then transferred to a FLIPR Tetra plate reader (Molecular Devices). Dye fluorescence was then measured every 3 sec for a total of 10 min. After 12 sec, a 2.5 μl bolus of Ca2+ (75 μM) was added from a source plate containing 675 μM CaCl2) in FLIPR assay buffer. IC50 values for test compounds were calculated using the fluorescence value collected at the 10 min timepoint with % inhibition calculated using the DMSO control and cyclosporin A values at […].

[6] = fasted state simulated intestinal fluid (FaSSIF), fassif, Fasted state simulated intestinal fluid, 2 hr at 25° C., read-out: Solubility FaSSIF

Compound | hepatocyte CLint at 1 µM [1] | inhibition at 20 min, 1 µM (CYP2D6) | solubility at 2 h ([2]; aqueous buffer, PBS pH 7.4, 2 hr at 25° C., read-out: Solubility PBS (pH 7.4)) | hepatocyte CLint at 1 µM [3] | mPTP Rat liver pIC50 (mPTP [4]) | solubility at 2 h [2, 6] | activity in the rat liver mitochondria assay (in words) (mPTP [4]) | mPTP Rat brain pIC50 (mPTP [5])
Cc1cc(F)c(F)c(C)c1NC(=O)/C=C/c1ccc2c(c1)NC(=O)C2 [Example 36, (E)-N-(3,4-difluoro-2,6-dimethylphenyl)-3-(2-oxoindolin-6-yl)acrylamide] | 7.26 µL/min/1e6 cells | -2.57% | 65.9 µM (≈ 22.6 µg/mL) | 9.41 µL/min/1e6 cells | 7.2 |  |  | 
Cc1c(F)cccc1NC(=O)/C=C/c1ccc2c(C)n[nH]c2c1 [Example 37, (E)-N-(3-fluoro-2-methylphenyl)-3-(3-methyl-1H-indazol-6-yl)acrylamide] | 18.9 µL/min/1e6 cells | 5.04% |  | 87.6 µL/min/1e6 cells | 8.1 | 2.95 µM (≈ 0.913 µg/mL) | highest activity | 
COCc1c(F)cccc1NC(=O)/C=C/c1ccc2c(C)n[nH]c2c1 [Example 50, (E)-N-(3-fluoro-2-(methoxymethyl)phenyl)-3-(3-methyl-1H-indazol-6-yl)acrylamide] | 15.6 µL/min/1e6 cells | 1.3% |  | 47.8 µL/min/1e6 cells | 7.3 | 23.7 µM (≈ 8.04 µg/mL) |  | 
Cc1n[nH]c2cc(/C=C/C(=O)N[C@H]3c4ccccc4OC[C@@H]3C)ccc12 [Example 65c, (E)-3-(3-methyl-1H-indazol-6-yl)-N-((3R,4R)-3-methylchroman-4-yl)acrylamide] |  |  |  |  | 7.7 |  |  | 7.8
CO[C@H]1Cc2ccccc2[C@@H]1NC(=O)/C=C/c1ccc2c(C3CC3)n[nH]c2c1 [Example 70, (E)-3-(3-cyclopropyl-1H-indazol-6-yl)-N-((1S,2S)-2-methoxy-2,3-dihydro-1H-inden-1-yl)acrylamide] | 24.6 µL/min/1e6 cells | 7.5% |  | 70.1 µL/min/1e6 cells | 7.5 | 18.4 µM (≈ 6.87 µg/mL) |  | 
COc1n[nH]c2cc(/C=C/C(=O)N[C@H]3c4ccccc4C[C@@H]3OC)ccc12 [Example 71, (E)-3-(3-methoxy-1H-indazol-6-yl)-N-((1S,2S)-2-methoxy-2,3-dihydro-1H inden-1-yl)acrylamide] | 8.9 µL/min/1e6 cells | 7.4% |  | 72 µL/min/1e6 cells | 7.0 | 19.9 µM (≈ 7.25 µg/mL) |  | 
COc1cc(C)c(NC(=O)/C=C/c2ccc3c(C)n[nH]c3c2)c(C)n1 [Example 91, (2E)-N-(6-methoxy-2,4-dimethylpyridin-3-yl)-3-(3-methyl-1H-indazol-6-yl)prop-2-enamide] |  |  |  |  | 6.2 | 86 µM (≈ 28.9 µg/mL) |  | 7.2
COc1cc(C)c(NC(=O)/C=C/c2ccc3c(F)n[nH]c3c2)c(C)n1 [Example 93, (2E)-3-(3-fluoro-1H-indazol-6-yl)-N-(6-methoxy-2,4-dimethylpyridin-3-yl) prop-2-enamide] |  |  |  |  | 7.6 | 151 µM (≈ 51.4 µg/mL) |  | 6.8
COc1cc(C)c(NC(=O)/C=C/c2ccc3c(C#N)n[nH]c3c2)c(C)n1 [Example 94, (2E)-3-(3-cyano-1H-indazol-6-yl)-N-(6-methoxy-2,4-dimethylpyridin-3-yl)prop-2-enamide] |  |  |  |  | 7.5 | 43 µM (≈ 14.9 µg/mL) |  | 7.4
Cc1ncc(F)c(C)c1NC(=O)/C=C/c1cc2[nH]nc(C)c2cc1F [Example 107, (2E)-N-(5-fluoro-2,4-dimethylpyridin-3-yl)-3-(5-fluoro-3-methyl-1H-indazol-6-yl)prop-2-enamide] |  |  |  |  | 8.1 |  |  | 8.0
Cc1ncc(F)c(C)c1NC(=O)/C=C/c1ccc2c(F)n[nH]c2c1 [Example 108, (2E)-3-(3-fluoro-1H-indazol-6-yl)-N-(5-fluoro-2,4-dimethylpyridin-3-yl)prop-2-enamide] |  |  |  |  | 7.8 |  |  | 7.6
Cc1ncc(F)c(C)c1NC(=O)/C=C/c1cc2[nH]nc(F)c2cc1F [Example 111, (2E)-3-(3,5-difluoro-1H-indazol-6-yl)-N-(5-fluoro-2,4-dimethylpyridin-3-yl)prop-2-enamide] |  |  |  |  | 8.1 |  |  | 8.1
Cc1ncc(F)c(C)c1NC(=O)/C=C/c1ccc2c(Cl)n[nH]c2c1 [Example 112, (2E)-3-(3-chloro-1H-indazol-6-yl)-N-(5-fluoro-2,4-dimethylpyridin-3-yl)prop-2-enamide] |  |  |  |  | 8.2 |  |  | 8.2
Cc1ncccc1NC(=O)/C=C/c1ccc2c(C)n[nH]c2c1 [Example 115, (2E)-3-(3-methyl-1H-indazol-6-yl)-N-(2-methylpyridin-3-yl)prop-2-enamide] |  |  |  |  | 6.2 |  |  | 5.7
Cc1ccnc(C)c1NC(=O)/C=C/c1ccc2c(C)n[nH]c2c1 [Example 116, (2E)-N-(2,4-dimethylpyridin-3-yl)-3-(3-methyl-1H-indazol-6-yl)prop-2-enamide] |  |  |  |  | 6.5 |  |  | 6.2
